Measurements published in patent publication US7531195B2, “Schisandrin B preparation” (priority 2005, dated 2009).

Key:
[1] = tested on: H9c2 cells; assay: Cellular GSH level in H9c2 cells with or without menadione challenge; format: cell-based, rat
Experimental: (§1) H9c2 cells, a permanent cell line derived from cardiac myoblasts of rat embryo, have early been characterized as a suitable model of myocardial cells [Hescheler et al. 1991]. H9c2 cells were cultured as monolayers in Dulbecco's modified Eagle's medium (GIBCO BRL) supplemented with 10% (v/v) fetal bovine serum. The medium contained glucose (4.5 g/L) and glutamine (4.5 mM), supplemented with NaHCO3 (17 mM), penicillin (100 IU/ml), and streptomycin (100 μg/ml). Cells were grown under an atmosphere of 5% CO2 in air at 37° C. The medium was replaced by fresh medium every 2 or 3 days. A stock of cells was grown in a 75 cm culture flask and split before confluence at a subcultivation ratio of 1:10. Cells used for experiments were seeded at a density of 3.75×10^4 cells/well on a 12-well culture plate, and the cells were grown for 24 h to about 80% confluence prior to drug treatment.
(§2) Cultured H9c2 cells were treated with (−) Schisandrin B, (+) Schisandrin B or (±) Schisandrin B (dissolved in DMSO) at 6.25 μM (0.2% DMSO final concentration) for 16 h. Control cells were given the vehicle (i.e. DMSO) only. Immediately following the drug or vehicle pretreatment, the cells were challenged with menadione (dissolved in ethanol) at 12.5 μM (0.2% ethanol final concentration) for 4 h. The control cells were treated with the medium containing 0.2% ethanol only. After the menadione challenge, the medium was taken for the measurement of LDH activity, an biochemical index of cell injury.
(§3) The cells were washed twice with 0.5 ml cold phosphate-buffered saline (PBS), An aliquot (200 μl) of 3% sulfonsalicyclic acid was then added, and the mixture was incubate at 4° C. for 10 min. After centrifuging at 300 g for 15 min at 4° C., the supernatant was used for GSH measurement by an enzymatic method of Griffith (1980).

[2] = tested on: H9c2 cells; assay: Xanthine/xanthine oxidase-induced cytotoxicity (LDH leakage) in H9c2 cells; format: cell-based, rat; details: X/XO challenge, 6.25 μM
Experimental: as §1
(§4) Cultured H9c2 cells were treated with (−) Schisandrin B, (+) Schisandrin B or (±) Schisandrin B (dissolved in DMSO) at 6.25 μM (0.2% DMSO final concentration) for increasing periods of time. Control cells were given the vehicle (i.e. DMSO) only. Immediately following the drug or vehicle pretreatment, the cells were challenged with a mixture of xanthine (X) (0.1 mM) and xanthine oxidase (XO) (0.4 U/ml) for 4 h. The control cells were treated with the medium only. After the X/XO challenge, the medium was taken for the measurement of LDH activity, a biochemical index of cellular injury.

[3] = tested on: Hsp70; assay: Hsp70 expression in H9c2 cells (Western blot); format: cell-based, rat; details: 6.25 μM
Experimental: as §1
(§5) Cultured H9c2 cells were treated with (−) Schisandrin B, (+) Schisandrin B or (±) Schisandrin B (dissolved in DMSO) at 6.25 μM (0.2% DMSO final concentration) for increasing periods of time. Control cells were given the vehicle (i.e. DMSO) only.
(§6) Immediately following the drug treatment, the cells were washed twice with 0.5 ml cold PBS and treated with 100 μl lysis buffer containing 20 mM Tris HCl, 3 mM EGTA, 1% Triton X-100, 10% glycerol and 2 mM dithiothreitol, pH 7.5, with freshly added protease inhibitors (1 mM phenylmethylsulfonyl fluoride, 0.1 mM benzamide, 5 μg/ml leupeptin, 5 μg aproptinin and 5 μg/ml pepstain A). The mixture was incubated at 4° C. for 15 min with constant shaking. Then the cells were scraped off from the plate, and the extract was transferred to a microcentrifuge tube for centrifugation at 2,400 g for 3 min at 4° C. The resultant supernatant was used for Hsp analysis. Hsp25 and Hsp70 levels was estimated by Western blot analysis using specific antibodies (anti-Hsp25, catalog #SPA-801; anti-Hsp70, catalog #SPA-812) from StressGen (Vancouver, BC, Canada) following SDS-PAGE analysis cell lysates, using a separating gel of 10% acrylamide as described in Ip et. al. [2001]. Hsp25/27 and Hsp70 (human recombinant proteins from StressGen) and actin (bovine muscle from Sigma) were used as markers for reference. […] All immuno-blots were analyzed by densitometry, and the amounts (arbitrary units) of Hsp were normalized with reference to actin levels (arbitrary units) in the sample.

[4] = tested on: H9c2 cells; assay: Menadione-induced toxicity (LDH) in H9c2 cells; format: cell-based, rat
Experimental: as §1, §2

[5] = tested on: H9c2 cells; assay: Cellular GSH level in H9c2 cells, time course, with or without xanthine/xanthine oxidase (X/XO) challenge; format: cell-based, rat; details: 6.25 μM
Experimental: as §1, §4, §3

[6] = tested on: Hsp25; assay: Hsp25 expression in H9c2 cells (Western blot); format: cell-based, rat; details: 6.25 μM
Experimental: as §1, §5, §6

[7] = tested on: mitochondria of brain, heart, liver and skeletal muscle; assay: Mitochondrial ATP generation capacity in various tissues of young female rats; format: in vivo, rat; details: 15 days; for ATP generation: (−) Sch B, α-LA, α-Toc at daily 10, 5 and 70 mg/kg respectively; for effect on mitochondrial ATP generation capacity in various tissues: α-LA 5 mg/kg, α-Toc 70 mg/kg daily
[8] = tested on: mitochondria of brain, heart, liver and skeletal muscle; assay: Mitochondrial antioxidant status in various tissues of young female rats; format: in vivo, rat; details: (−) Sch B, α-LA, α-Toc at daily 10, 5 and 70 mg/kg respectively, 15 days
Experimental: The dosages were determined with reference to the equivalent amount of crude herb prescribed for human or the daily recommended intake in health supplements. The control animals received olive oil only. Twenty-four hours after the last dose, the pentobarbital-anesthetized animals were sacrificed by cardiac excision, and brain. heart, liver and skeletal muscle tissues were obtained. Tissue samples (brain, heart, liver, and skeletal muscle) were rinsed with ice-cold isotonic buffer (50 mM Tris, 0.32 M sucrose, 1 mM Na2EDTA, 0.2 mg/ml soybean trypsin inhibitor, 0.2 mg/ml bacitracine, 0.16 mg/ml benzamidine). Tissue homogenates were prepared by homogenizing 0.8 g of myocardial tissue in 8 ml ice-cold isotonic buffer and the homogenates were used for the preparation of mitochondrial fractions by differential centrifugation, as described in Chiu and Ko (2004). The mitochondrial pellets were resuspended in 1.5 ml of isotonic buffer containing 150 μl of 2 mg/ml soybean trypsin inhibitor and constituted the mitochondrial fractions. […] (St. Louis, Mo., USA). […] Aliquots (400 μl) of mitochondrial fractions were mixed with 933 μl Triton X-100 solution (0.3%, v/v, in isotonic buffer) and sonicated for 2 min on ice. The mixtures were then subjected to measurements of mitochondrial glutathione reductase (GRD), Se-glutathione peroxidase (GPX) and glutathione S-transferases (GST) activities by spectrophotometric methods, as described in Chiu et al. (2002).

[9] = MENADIONE 12.5 μM for 4 h, drug 6.25 μM for 16 h
[10] = NON-MENADIONE, 6.25 μM for 16 h
[11] = 0 h post-dosing (unpretreated control)
[12] = X/XO challenge, 16 h post-dosing

COc1cc2c(c(OC)c1OC)-c1c(cc3c(c1OC)OCO3)CC(C)C(C)C2 (racemic) [(±) Sch B, (±) Schisandrin B]
GSH Level [1, 9]: 28.9 ± 0.66 nmol/mg protein
GSH Level, percent increase vs menadione control [1, 9]: (56%)
GSH Level [1, 10]: 46.5 ± 2.58 nmol/mg protein
GSH Level, percent increase vs non-menadione control [1, 10]: (34%)
LDH Leakage [2, 11]: 33.9 ± 0.93 U/L
LDH Leakage ([2]; 4 h post-dosing): 28.7 ± 1.35 U/L
LDH Leakage ([2]; 8 h post-dosing): 22.8 ± 0.45 U/L
LDH Leakage ([2]; 16 h post-dosing): 15.8 ± 0.91 U/L
LDH Leakage, percent protection vs unpretreated control (0 h) ([2]; 16 h post-dosing): (65%)
LDH Leakage ([2]; 24 h post-dosing): 20.1 ± 0.76 U/L
LDH Leakage ([2]; 48 h post-dosing): 29.2 ± 0.57 U/L
Hsp 70 Level [3, 11]: 434 ± 15.5 AU
Hsp 70 Level ([3]; 8 h post-dosing): 389 ± 24.7 AU
Hsp 70 Level ([3]; 16 h post-dosing): 652 ± 23.9 AU
Hsp 70 Level ([3]; 24 h post-dosing): 639 ± 23.4 AU
Hsp 70 Level, percent increase vs unpretreated control (0 h) ([3]; 24 h post-dosing): (47%)
Hsp 70 Level ([3]; 48 h post-dosing): 419 ± 15.4 AU
LDH [4, 9]: 23.6 ± 0.56 U/ml
LDH, percent protection vs menadione control [4, 9]: (43%)
LDH [4, 10]: 14.6 ± 0.67 U/ml
GSH Level ([5]; NON-X/XO, 0 h post-dosing (unpretreated control)): 38.3 ± 1.16 nmol/mg protein
GSH Level ([5]; NON-X/XO, 4 h post-dosing): 44.1 ± 3.60 nmol/mg protein
GSH Level ([5]; NON-X/XO, 8 h post-dosing): 46.2 ± 1.90 nmol/mg protein
GSH Level ([5]; NON-X/XO, 16 h post-dosing): 85.8 ± 2.57 nmol/mg protein
GSH Level, percent increase vs unpretreated control (0 h) ([5]; NON-X/XO, 16 h post-dosing): (124%)
GSH Level ([5]; NON-X/XO, 24 h post-dosing): 76.6 ± 0.88 nmol/mg protein
GSH Level ([5]; NON-X/XO, 48 h post-dosing): 58.8 ± 6.54 nmol/mg protein
GSH Level ([5]; X/XO challenge, 0 h post-dosing (unpretreated control)): 14.5 ± 1.06 nmol/mg protein
GSH Level ([5]; X/XO challenge, 4 h post-dosing): 15.8 ± 0.49 nmol/mg protein
GSH Level ([5]; X/XO challenge, 8 h post-dosing): 16.7 ± 1.32 nmol/mg protein
GSH Level [5, 12]: 22.3 ± 0.15 nmol/mg protein
GSH Level, percent increase vs unpretreated control (0 h) [5, 12]: (54%)
GSH Level ([5]; X/XO challenge, 24 h post-dosing): 18.9 ± 0.50 nmol/mg protein
GSH Level ([5]; X/XO challenge, 48 h post-dosing): 14.3 ± 1.04 nmol/mg protein
Hsp 25 Level [6, 11]: 1413 ± 76 AU
Hsp 25 Level ([6]; 8 h post-dosing): 1512 ± 39 AU
Hsp 25 Level ([6]; 16 h post-dosing): 1611 ± 93 AU
Hsp 25 Level ([6]; 24 h post-dosing): 1728 ± 101 AU
Hsp 25 Level, percent increase vs unpretreated control (0 h) ([6]; 24 h post-dosing): (24%)
Hsp 25 Level ([6]; 48 h post-dosing): 1332 ± 77 AU

O=C(O)CCCCC1CCSS1 (stereo not drawn) [α-LA, α-lipoic acid]
ATP generation ([7]; BRAIN): 72 ± 4 percent control
ATP generation ([7]; HEART): 68 ± 9 percent control
ATP generation ([7]; LIVER): 77 ± 5 percent control
ATP generation ([7]; SKELETAL MUSCLE): 101 ± 1 percent control
effect on mitochondrial ATP generation capacity in various tissues [7]: decreased
GPX ([8]; BRAIN): 126 ± 9 percent control
GRD ([8]; BRAIN): 131 ± 5 percent control
GSH ([8]; BRAIN): 93 ± 2 percent control
GST ([8]; BRAIN): 103 ± 3 percent control
α-Toc level ([8]; BRAIN): 110 ± 6 percent control
GPX ([8]; HEART): 105 ± 9 percent control
GRD ([8]; HEART): 144 ± 11 percent control
GSH ([8]; HEART): 103 ± 4 percent control
GST ([8]; HEART): 119 ± 6 percent control
α-Toc level ([8]; HEART): 111 ± 4 percent control
GPX ([8]; LIVER): 159 ± 10 percent control
GRD ([8]; LIVER): 143 ± 8 percent control
GSH ([8]; LIVER): 117 ± 2 percent control
GST ([8]; LIVER): 112 ± 3 percent control
α-Toc level ([8]; LIVER): 124 ± 13 percent control
GPX ([8]; SKELETAL MUSCLE): 117 ± 5 percent control
GRD ([8]; SKELETAL MUSCLE): 123 ± 12 percent control
GSH ([8]; SKELETAL MUSCLE): 154 ± 12 percent control
GST ([8]; SKELETAL MUSCLE): 171 ± 19 percent control
α-Toc level ([8]; SKELETAL MUSCLE): 147 ± 14 percent control

Cc1c(C)c2c(c(C)c1O)CC[C@@](C)(CCC[C@H](C)CCC[C@H](C)CCCC(C)C)O2 [α-Toc, α-tocopherol]
ATP generation ([7]; BRAIN): 62 ± 8 percent control
ATP generation ([7]; HEART): 95 ± 12 percent control
ATP generation ([7]; LIVER): 83 ± 8 percent control
ATP generation ([7]; SKELETAL MUSCLE): 80 ± 8 percent control
effect on mitochondrial ATP generation capacity in various tissues [7]: decreased
GPX ([8]; BRAIN): 121 ± 12 percent control
GRD ([8]; BRAIN): 153 ± 10 percent control
GSH ([8]; BRAIN): 119 ± 6 percent control
GST ([8]; BRAIN): 121 ± 5 percent control
α-Toc level ([8]; BRAIN): 139 ± 9 percent control
GPX ([8]; HEART): 130 ± 10 percent control
GRD ([8]; HEART): 243 ± 20 percent control
GSH ([8]; HEART): 152 ± 9 percent control
GST ([8]; HEART): 159 ± 7 percent control
α-Toc level ([8]; HEART): 151 ± 5 percent control
GPX ([8]; LIVER): 169 ± 14 percent control
GRD ([8]; LIVER): 161 ± 5 percent control
GSH ([8]; LIVER): 133 ± 11 percent control
GST ([8]; LIVER): 128 ± 3 percent control
α-Toc level ([8]; LIVER): 214 ± 31 percent control
GPX ([8]; SKELETAL MUSCLE): 136 ± 7 percent control
GRD ([8]; SKELETAL MUSCLE): 149 ± 8 percent control
GSH ([8]; SKELETAL MUSCLE): 153 ± 6 percent control
GST ([8]; SKELETAL MUSCLE): 176 ± 13 percent control
α-Toc level ([8]; SKELETAL MUSCLE): 189 ± 11 percent control
